Assay results reported in the supplement of paper PMC13380429.

Assays:
Conditions in all cases: 72 h
Caco-2 [1] = assay: cell viability relative to DMSO; higher = less toxic
Calu-3 [2] = assay: as above
HepG2 [3] = assay: as above
U2OS [4] = assay: as above
Vero E6 [5] = assay: as above
Caco-2 [6] = assay: relative viability EC50 (midpoint between 100% and the lowest measured viability); higher = less toxic
Calu-3 [7] = assay: as above
HepG2 [8] = assay: as above
U2OS [9] = assay: as above
Vero E6 [10] = assay: as above
Caco-2 [11] = assay: drug sensitivity score (DSS) for viability; higher = more toxic; extreme values may be limits of the assay
Calu-3 [12] = assay: as above
HepG2 [13] = assay: as above
U2OS [14] = assay: as above
Vero E6 [15] = assay: as above

Row | SMILES | cell viability (Caco-2 [1]; 1 nM) | cell viability (Caco-2 [1]; 10 nM) | cell viability (Caco-2 [1]; 100 nM) | cell viability (Caco-2 [1]; 1000 nM) | cell viability (Caco-2 [1]; 10000 nM) | cell viability (Calu-3 [2]; 1 nM) | cell viability (Calu-3 [2]; 10 nM) | cell viability (Calu-3 [2]; 100 nM) | cell viability (Calu-3 [2]; 1000 nM) | cell viability (Calu-3 [2]; 10000 nM) | cell viability (HepG2 [3]; 1 nM) | cell viability (HepG2 [3]; 10 nM) | cell viability (HepG2 [3]; 100 nM) | cell viability (HepG2 [3]; 1000 nM) | cell viability (HepG2 [3]; 10000 nM) | cell viability (U2OS [4]; 1 nM) | cell viability (U2OS [4]; 10 nM) | cell viability (U2OS [4]; 100 nM) | cell viability (U2OS [4]; 1000 nM) | cell viability (U2OS [4]; 10000 nM) | cell viability (Vero E6 [5]; 1 nM) | cell viability (Vero E6 [5]; 10 nM) | cell viability (Vero E6 [5]; 100 nM) | cell viability (Vero E6 [5]; 1000 nM) | cell viability (Vero E6 [5]; 10000 nM) | relative viability EC50 (Caco-2 [6]) | relative viability EC50 (Calu-3 [7]) | relative viability EC50 (HepG2 [8]) | relative viability EC50 (U2OS [9]) | relative viability EC50 (Vero E6 [10]) | drug sensitivity score (Caco-2 [11]) | drug sensitivity score (Calu-3 [12]) | drug sensitivity score (HepG2 [13]) | drug sensitivity score (U2OS [14]) | drug sensitivity score (Vero E6 [15])
1 | CSCC[C@H](NC(=O)[C@H](Cc1ccccc1)NC(=O)CNC(=O)CNC(=O)[C@@H](N)Cc1ccc(O)cc1)C(=O)O [metenkephalin] | 94.7% | 94.9% | 100% | 96.4% | 97.2% | 102% | 99.7% | 105% | 94.3% | 101% | 96.6% | 99% | 91% | 115% | 107% | 103% | 97.1% | 102% | 102% | 102% | 93.8% | 96.5% | 96.7% | 98.4% | 108% | > 10 µM | > 10 µM | > 10 µM | > 10 µM | > 10 µM | 0 | 0 | 0 | 0 | 0
2 | Clc1ccc(CCCOCCCN2CCCCC2)cc1 [pitolisant] | 99.4% | 93.6% | 96.4% | 89.7% | 89.8% | 90.7% | 106% | 92.3% | 90.6% | 94.8% | 93.8% | 91.4% | 96% | 94.6% | 81.8% | 104% | 99.7% | 100% | 97.7% | 96.8% | 95% | 94.9% | 95.6% | 93.2% | 89.4% | > 10 µM | > 10 µM | > 10 µM | > 10 µM | > 10 µM | 0 | 0 | 0.3 | 0 | 0
3 | Oc1cc(O)c2c(c1)O[C@H](c1ccc(O)c(O)c1)[C@H](O)[C@H]2c1c(O)cc(O)c2c1O[C@H](c1ccc(O)c(O)c1)[C@H](O)C2 [procyanidin-B-2] | 106% | 102% | 102% | 98.7% | 105% | 112% | 95.6% | 100% | 93.1% | 109% | 98.5% | 100% | 96.8% | 99.3% | 94.7% | 103% | 99.9% | 106% | 99.5% | 104% | 97% | 98.2% | 91.8% | 101% | 93.4% | > 10 µM | > 10 µM | > 10 µM | > 10 µM | > 10 µM | 0 | 0 | 0 | 0 | 0
4 | Oc1cc(Cl)ccc1Oc1ccc(Cl)cc1Cl [triclosan] | 105% | 102% | 94.5% | 95.6% | 126% | 97.7% | 92.3% | 106% | 101% | 107% | 105% | 99.3% | 102% | 93.8% | 113% | 98.7% | 96.5% | 98.3% | 97.9% | 99.3% | 97% | 104% | 106% | 112% | 95.3% | > 10 µM | > 10 µM | > 10 µM | > 10 µM | > 10 µM | 0 | 0 | 0 | 0 | 0
5 | CCc1c(C(=O)Nc2cc(S(=O)(=O)N(CC)CC)ccc2O)[nH]c(C)c1C(C)=O [XD-14] | 101% | 93.5% | 97.2% | 98.8% | 80.8% | 111% | 89.2% | 104% | 103% | 108% | 96.8% | 106% | 116% | 97.6% | 84.6% | 99.3% | 93% | 95.6% | 100% | 87.4% | 96% | 102% | 89.5% | 91.5% | 95.9% | > 10 µM | > 10 µM | > 10 µM | > 10 µM | > 10 µM | 0.7 | 0 | 0.5 | 0.1 | 0.2
6 | Cc1sc(N)c(C(=O)c2cccc(C(F)(F)F)c2)c1C | 97.7% | 96.6% | 97% | 95.6% | 90.6% | 100% | 91.9% | 99.2% | 100% | 109% | 92.3% | 102% | 93.2% | 96.7% | 92.7% | 97.9% | 95.9% | 99.9% | 94.9% | 102% | 98.1% | 96.9% | 98% | 99.3% | 100% | > 10 µM | > 10 µM | > 10 µM | > 10 µM | > 10 µM | 0 | 0 | 0 | 0 | 0
7 | CC[C@@H](C)Nc1cc(C(=O)N[C@H]2C[C@H]3CC[C@@H](C2)N3c2ccc(C(=O)C3CC3)cn2)c(C)cc1C(N)=O [XL888] | 104% | 94.3% | 59.3% | 32.8% | 35.2% | 92.4% | 101% | 53.6% | 43.1% | 38.7% | 108% | 93.4% | 4.8% | 1.3% | 1% | 97.2% | 104% | 43.4% | 4.3% | 3.4% | 104% | 104% | 99.8% | 30.4% | 52.4% | 0.071 µM | 0.0636 µM | 0.0285 µM | 0.0872 µM | 0.315 µM | 17.3 | 16.8 | 30.8 | 24.2 | 12.7
8 | O=C(Nc1ccc(O)cc1)c1ccccc1O [N-salicoylaminophenol] | 94.3% | 96% | 97.4% | 94.7% | 92.7% | 105% | 99.1% | 95.2% | 94.1% | 94.7% | 90.2% | 106% | 92.1% | 105% | 113% | 96.6% | 98.1% | 95.6% | 97.4% | 93.3% | 93.2% | 99.4% | 90.9% | 93.1% | 110% | > 10 µM | > 10 µM | > 10 µM | > 10 µM | > 10 µM | 0 | 0 | 0 | 0 | 0
9 | CCOC(=O)c1ccccc1OC(=O)CCCCCCCC(=O)Oc1ccccc1C(=O)OCC [TU-2100] | 97.9% | 101% | 92.1% | 95.6% | 100% | 94.1% | 104% | 92.3% | 95.7% | 108% | 97.9% | 104% | 106% | 96.7% | 98.9% | 102% | 100% | 97.3% | 99.6% | 99.3% | 95.5% | 101% | 102% | 101% | 99.9% | > 10 µM | > 10 µM | > 10 µM | > 10 µM | > 10 µM | 0 | 0 | 0 | 0 | 0
10 | COC(=O)N/N=C/c1c[n+]([O-])c2ccccc2[n+]1[O-] [carbadox] | 90.4% | 81.8% | 92.9% | 92.1% | 88.4% | 93.8% | 84.8% | 95.7% | 105% | 93.2% | 110% | 95.4% | 96.1% | 105% | 110% | 99.5% | 97.4% | 99.2% | 91.7% | 98.2% | 93.7% | 95.8% | 88.9% | 92.6% | 111% | > 10 µM | > 10 µM | > 10 µM | > 10 µM | > 10 µM | 0 | 0 | 0 | 0 | 0
11 | COc1ccc(CCO[C@@H]2CCCC[C@H]2N2CC[C@@H](O)C2)cc1OC [vernakalant] | 101% | 91.2% | 93.9% | 101% | 106% | 111% | 97.1% | 106% | 104% | 109% | 89.2% | 112% | 99.2% | 100% | 110% | 102% | 94.1% | 103% | 95.2% | 101% | 97.8% | 97.3% | 91.7% | 98.6% | 106% | > 10 µM | > 10 µM | > 10 µM | > 10 µM | > 10 µM | 0 | 0 | 0 | 0 | 0
12 | c1ccc2c(c1)CCC[C@H]2Nc1nc2ccccc2[nH]1 [NS-8593] | 93.1% | 92.9% | 92.4% | 97.2% | 92.2% | 96.2% | 96.2% | 94% | 94.3% | 90.1% | 96.8% | 96.8% | 106% | 99.2% | 78.5% | 104% | 98.1% | 96.2% | 100% | 90.1% | 94% | 95.1% | 95.6% | 98.4% | 87.4% | > 10 µM | > 10 µM | > 10 µM | > 10 µM | > 10 µM | 0 | 0 | 0.8 | 0 | 0
